Laboratory results published in patent publication US20240199611A1, “ANTIBACTERIAL COMPOUNDS” (JANSSEN SCIENCES IRELAND UNLIMITED COMPANY, priority 2021, published 2024).
Read-outs that look alike come from different tables or passages of the source.

Legend:
[1] = system: Mycobacterium tuberculosis strain EH4.0 expressing green-fluorescent protein (GFP); assay: microbe, parasite or virus in culture; format: cell-based; details: read-out: pIC50 (converted)
[2] = format: physicochemical; details: 30 μM; for chemical stability (% by LCMS), DMSO: 0 h; for chemical stability (% by LCMS), ACN/H2O / chemical stability (% by LCMS), ACN/0.1N HCl: 48 h; for chemical stability (% by LCMS), ACN/0.1N HCl: pH 1.6
Experimental: Chemical Stability Testing
Preliminary Protocol • Add 3 μl of a 10 mM DMSO stock solution to 1 ml of the following solvents in a 1.5 ml HPLC vial. • DMSO (reference solution) • H2O/Acetonitril 1/1 (assay solution) • 0.1N HCl/Acetonitril 1/1 (assay solution) • Mix well, […] LCMS • Compare the chromatograms of the two assay solutions with the reference solution and report the additional peaks as degradation peaks

CCc1nc2ncc(C)cn2c1C(=O)NCc1ccc(N2CCN(S(=O)(=O)C(F)(F)F)C(C)=N2)cc1 [Compound 250]
IC50 ([1]; Test 1 (and/or Test 2)): 1.58 nM

CCc1nc2ccc(C)cn2c1C(=O)NCc1ccc(N2CCN(S(=O)(=O)C(F)(F)F)C(C3CCC3)=N2)cc1 [Compound 237]
IC50 ([1]; Test 1 (and/or Test 2)): 5.75 nM

CCc1nc2ccc(F)cn2c1C(=O)NCc1ccc(N2CCN(S(=O)(=O)C(F)(F)F)C(C3CC3)=N2)cc1 [Compound 227]
IC50 ([1]; Test 1 (and/or Test 2)): 11.5 nM

CCc1nc2ccc(C)cn2c1C(=O)NCc1cnc(N2CCN(S(=O)(=O)C(F)(F)F)C(C(C)C)=N2)c(F)c1 [Compound 246]
IC50 ([1]; Test 1 (and/or Test 2)): 2.63 nM

CCc1nc2ccc(COC)cn2c1C(=O)NCc1ccc(N2CCN(S(=O)(=O)C(F)(F)F)C=N2)cc1 [Compound 43]
IC50 ([1]; Test 1 (and/or Test 2)): 10 nM
melting point: 169.05 °C

COC1=NN(c2ccc(CNC(=O)c3nnc4ccc(Br)cn34)cc2F)CCN1S(=O)(=O)C(F)(F)F [Compound 94]
IC50 [1]: 38.9 nM

CCc1nc2ncc(Cl)cn2c1C(=O)NCc1cc(F)c(N2CCN(S(=O)(=O)C(F)(F)F)C=N2)c(F)c1 [Compound 47]
IC50 ([1]; Test 1 (and/or Test 2)): 3.16 nM
melting point: 149.44 °C

CCc1nc2ccc(Cl)cn2c1C(=O)NCc1ccc(N2CCN(c3nccs3)C(OC)=N2)cc1 [Compound 54]
IC50 ([1]; Test 1 (and/or Test 2)): 11 nM
melting point: 233.23 °C

CCc1nc2c(F)cc(Cl)cn2c1C(=O)NCc1ccc(N2CCN(S(=O)(=O)C(F)(F)F)C(C(C)C)=N2)c(F)c1 [Compound 238]
chemical stability (% by LCMS), DMSO [2]: 100%
chemical stability (% by LCMS), ACN/H2O [2]: 100%
chemical stability (% by LCMS), ACN/0.1N HCl [2]: 100%
IC50 ([1]; Test 1 (and/or Test 2)): 1.58 nM

CCc1nc2ccc(C)cn2c1C(=O)NCc1ccc(N2CCN(S(=O)(=O)C(F)(F)F)C(C(=O)N(C)C)=N2)cc1 [Compound 259]
chemical stability (% by LCMS), DMSO [2]: 98%
chemical stability (% by LCMS), ACN/H2O [2]: 100%
chemical stability (% by LCMS), ACN/0.1N HCl [2]: 100%
IC50 [1]: 10.7 nM

Cc1cnc2nc(C(F)F)c(C(=O)NCc3ccc(N4CCN(S(=O)(=O)C(F)(F)F)C(C(C)C)=N4)c(F)c3)n2c1 [Compound 249]
IC50 ([1]; Test 1 (and/or Test 2)): 1.86 nM

CC1=NN(c2ccc(CNC(=O)c3c(C(F)(F)F)nc4ccc(C)cn34)cc2F)CCN1S(=O)(=O)C(F)(F)F [Compound 253]
chemical stability (% by LCMS), DMSO [2]: 100%
chemical stability (% by LCMS), ACN/H2O [2]: 100%
chemical stability (% by LCMS), ACN/0.1N HCl [2]: 100%
IC50 ([1]; Test 1 (and/or Test 2)): 1.86 nM

CCc1nc2c(F)cc(Cl)cn2c1C(=O)NCc1ccc(N2CCN(S(=O)(=O)C(F)(F)F)C(C(C)C)=N2)cc1 [Compound 244]
IC50 ([1]; Test 1 (and/or Test 2)): 4.57 nM

CCC1=NN(c2ccc(CNC(=O)c3c(C(F)(F)F)nc4ccccn34)cc2F)CCN1S(=O)(=O)C(F)(F)F [Compound 233]
chemical stability (% by LCMS), DMSO [2]: 99%
chemical stability (% by LCMS), ACN/H2O [2]: 99%
chemical stability (% by LCMS), ACN/0.1N HCl [2]: 99%
IC50 ([1]; Test 1 (and/or Test 2)): 1.07 nM

CCc1nc2n(c1C(=O)NCc1ccc(N3CCN(S(=O)(=O)C(F)(F)F)C(C(C)C)=N3)c(F)c1)CCCC2 [Compound 242]
IC50 ([1]; Test 1 (and/or Test 2)): 2.4 nM

CCc1nc2ncc(C)cn2c1C(=O)NCc1ccc(N2CCN(S(=O)(=O)C(F)(F)F)C(C)=N2)c(F)c1 [Compound 251]
chemical stability (% by LCMS), DMSO [2]: 100%
chemical stability (% by LCMS), ACN/H2O [2]: 100%
chemical stability (% by LCMS), ACN/0.1N HCl [2]: 100%
IC50 ([1]; Test 1 (and/or Test 2)): 0.437 nM

COC1=NN(c2ccc(CNC(=O)c3nnc4ccc(Cl)cn34)cc2F)CCN1S(=O)(=O)C(F)(F)F [Compound 92]
IC50 [1]: 53.7 nM

CCC1=NN(c2ccc(CNC(=O)c3c(CC)nc4ncc(C)cn34)cc2F)CCN1S(=O)(=O)C(F)(F)F [Compound 234]
chemical stability (% by LCMS), DMSO [2]: 96%
chemical stability (% by LCMS), ACN/H2O [2]: 95%
chemical stability (% by LCMS), ACN/0.1N HCl [2]: 97%
IC50 ([1]; Test 1 (and/or Test 2)): 0.324 nM

O=C(NCc1ccc(N2CCN(S(=O)(=O)C(F)(F)F)C=N2)c(F)c1)c1c(C(F)F)nc2n1CCCC2 [Compound 147]
IC50 ([1]; Test 1 (and/or Test 2)): 3.8 nM

CCc1nc2cc(C)c(C)cn2c1C(=O)NCc1ccc(N2CCN(S(=O)(=O)C(F)(F)F)C(C(C)C)=N2)cc1 [Compound 245]
IC50 ([1]; Test 1 (and/or Test 2)): 13.8 nM

CC(C)C1=NN(c2ccc(CNC(=O)c3c(C(F)(F)F)nc4ccccn34)cc2F)CCN1S(=O)(=O)C(F)(F)F [Compound 247]
chemical stability (% by LCMS), DMSO [2]: 96%
chemical stability (% by LCMS), ACN/H2O [2]: 100%
chemical stability (% by LCMS), ACN/0.1N HCl [2]: 100%
IC50 ([1]; Test 1 (and/or Test 2)): 1.38 nM

CCc1nc2ccc(OC)cn2c1C(=O)NCc1ccc(N2CCN(S(=O)(=O)C(F)(F)F)C(OC)=N2)cc1 [Compound 36]
IC50 ([1]; Test 1 (and/or Test 2)): 3.98 nM
melting point: 142.03 °C

CCC1=NN(c2ncc(CNC(=O)c3c(CC)nc4ncc(C)cn34)cc2F)CCN1S(=O)(=O)C(F)(F)F [Compound 235]
chemical stability (% by LCMS), DMSO [2]: 99%
chemical stability (% by LCMS), ACN/H2O [2]: 99%
chemical stability (% by LCMS), ACN/0.1N HCl [2]: 98%
IC50 ([1]; Test 1 (and/or Test 2)): 6.31 nM

CCc1nc2nc3c(cn2c1C(=O)NCc1ccc(N2CCN(S(=O)(=O)C(F)(F)F)C=N2)c(F)c1)CCC3 [Compound 154]
IC50 ([1]; Test 1 (and/or Test 2)): 1.7 nM

CCc1nc2ccc(C)cn2c1C(=O)NCc1ccc(N2CCN(S(=O)(=O)C(F)(F)F)C(C(N)=O)=N2)cc1 [Compound 260]
chemical stability (% by LCMS), DMSO [2]: 98%
chemical stability (% by LCMS), ACN/H2O [2]: 100%
chemical stability (% by LCMS), ACN/0.1N HCl [2]: 100%
IC50 ([1]; Test 1 (and/or Test 2)): 32.4 nM

CCC1=NN(c2ncc(CNC(=O)c3c(C(F)(F)F)nc4ccccn34)cc2F)CCN1S(=O)(=O)C(F)(F)F [Compound 236]
IC50 ([1]; Test 1 (and/or Test 2)): 6.17 nM

Cc1cn2c(C(=O)NCc3ccc(N4CCN(S(=O)(=O)C(F)(F)F)C=N4)c(F)c3)c(C)nc2s1 [Compound 153]
IC50 ([1]; Test 1 (and/or Test 2)): 1.78 nM

CCc1nc2ncc(C)cn2c1C(=O)NCc1ccc(N2CCN(S(=O)(=O)C(F)(F)F)C(C3CC3)=N2)cc1 [Compound 228]
IC50 ([1]; Test 1 (and/or Test 2)): 1.45 nM

Cc1ccc2nc(C(F)(F)F)c(C(=O)NCc3ccc(N4CCN(S(=O)(=O)C(F)(F)F)C=N4)c(F)c3)n2c1 [Compound 175]
IC50 ([1]; Test 1 (and/or Test 2)): 1.58 nM

CCc1nc2cc(C)c(C)cn2c1C(=O)NCc1ccc(N2CCN(S(=O)(=O)C(F)(F)F)C(C(C)C)=N2)c(F)c1 [Compound 241]
chemical stability (% by LCMS), DMSO [2]: 100%
chemical stability (% by LCMS), ACN/H2O [2]: 100%
chemical stability (% by LCMS), ACN/0.1N HCl [2]: 100%
IC50 ([1]; Test 1 (and/or Test 2)): 3.47 nM

CCc1nc2ccc(C)cn2c1C(=O)NCc1cnc(N2CCN(S(=O)(=O)C(F)(F)F)C(C3CC3)=N2)c(F)c1 [Compound 232]
IC50 ([1]; Test 1 (and/or Test 2)): 1.51 nM

CCc1nc2ccc(C)cn2c1C(=O)NCc1ccc(N2CCN(S(=O)(=O)C(F)(F)F)C(C3CC3)=N2)cc1 [Compound 229]
IC50 ([1]; Test 1 (and/or Test 2)): 1.07 nM

CCc1nc2n(c1C(=O)NCc1ccc(N3CCN(S(=O)(=O)C(F)(F)F)C=N3)cc1)CCCC2 [Compound 3]
melting point: 189.22 °C

CCc1nc2ccc(Cl)cn2c1C(=O)NCc1ccc(N2CCN(C)C(C)=N2)cc1 [Compound 59]
melting point: 202.94 °C

CCc1nc2ccc(Cl)cn2c1C(=O)NCc1ccc(N2CCN(Cc3nc(C(F)(F)F)cs3)C=N2)cc1 [Compound 69]
melting point: 163.46 °C

O=C(NCc1ccc(N2CCN(S(=O)(=O)C(F)(F)F)C=N2)c(F)c1)c1c(C(F)(F)F)nc2ccc(Cl)cn12 [Compound 124]
IC50 ([1]; Test 1 (and/or Test 2)): 10 nM

CC1=NN(c2ncc(CNC(=O)c3c(C(F)(F)F)nc4ccccn34)cc2F)CCN1S(=O)(=O)C(F)(F)F [Compound 256]
IC50 ([1]; Test 1 (and/or Test 2)): 18.6 nM

CCc1nc2ccc(Cl)cn2c1C(=O)NCc1ccc(N2CCNC=N2)cc1 [Compound 56]
melting point: 236.36 °C

CCc1nc2cc(OC)c(Cl)cn2c1C(=O)NCc1ccc(N2CCN(S(=O)(=O)C(F)(F)F)C(OC)=N2)c(F)c1 [Compound 46]
melting point: 176.82 °C

CCc1nc2ccc(Cl)cn2c1C(=O)NCc1ccc(N2CCN(S(=O)(=O)CC(C)C)C=N2)cc1 [Compound 17]
melting point: 196.82 °C

CCc1nc2c(C)cc(C)cn2c1C(=O)NCc1ccc(N2CCN(S(=O)(=O)C(F)(F)F)C=N2)c(F)c1 [Compound 95]
IC50 [1]: 38 nM

CCc1nc2ncc(Cl)cn2c1C(=O)NCc1ccc(N2CCN(C(C)=O)C=N2)cc1 [Compound 24]
melting point: 258.01 °C

CC(C)C1=NN(c2ccc(CNC(=O)c3c(C(F)(F)F)nc4n3CCCC4)cc2F)CCN1S(=O)(=O)C(F)(F)F [Compound 239]
IC50 ([1]; Test 1 (and/or Test 2)): 8.91 nM

CCc1nc2ncc(C(=O)NC)cn2c1C(=O)NCc1ccc(N2CCN(S(=O)(=O)C(F)(F)F)C=N2)cc1 [Compound 61]
melting point: 193.44 °C

CCc1nc2ccc(Cl)cn2c1C(=O)NCc1ccc(N2CCN(S(=O)(=O)C(F)(F)F)C(C3CC3)=N2)cc1 [Compound 230]
IC50 ([1]; Test 1 (and/or Test 2)): 6.61 nM

CCc1nc2ccc(Cl)cn2c1C(=O)NCc1ccc(N2CCN(S(=O)(=O)CCOC)C=N2)cc1 [Compound 19]
melting point: 196.34 °C

COCc1nc2ccc(Cl)cn2c1C(=O)NCc1ccc(N2CCN(S(=O)(=O)C(F)(F)F)C=N2)cc1 [Compound 8]
IC50 [1]: 251 nM
melting point: 167.12 °C

CCc1nc2sc(Cl)cn2c1C(=O)NCc1ccc(N2CCN(S(=O)(=O)C(F)(F)F)C=N2)c(F)c1 [Compound 135]
IC50 ([1]; Test 1 (and/or Test 2)): 7.24 nM

CC1=NN(c2ccc(CNC(=O)c3c(C(F)(F)F)nc4ncccn34)cc2F)CCN1S(=O)(=O)C(F)(F)F [Compound 254]
IC50 ([1]; Test 1 (and/or Test 2)): 53.7 nM

CCc1nc2cc(OC)ccn2c1C(=O)NCc1ccc(N2CCN(S(=O)(=O)C(F)(F)F)C=N2)cc1 [Compound 51]
melting point: 185.08 °C

CCc1nc2ncc(F)cn2c1C(=O)NCc1ccc(N2CCN(S(=O)(=O)C(F)(F)F)C=N2)cc1 [Compound 10]
melting point: 171.42 °C

CCc1nc2ccc(Cl)cn2c1C(=O)NCc1ccc(N2CCN(S(=O)(=O)C(F)(F)F)C=N2)c(OC)c1 [Compound 25]
IC50 ([1]; Test 1 (and/or Test 2)): 10 nM
melting point: 125.56 °C

CCc1nc2ccc(Cl)cn2c1C(=O)NCc1ccc(N2CCN(S(=O)(=O)C(F)(F)F)C(OC)=N2)c(F)c1 [Compound 37]
melting point: 193.36 °C

CCc1nc2ccc(N3CCCC3)cn2c1C(=O)NCc1ccc(N2CCN(S(=O)(=O)C(F)(F)F)C=N2)cc1 [Compound 65]
melting point: 228.15 °C
